Data published in patent US20050119253A1, “Method of treating mental disorders using of D4 and 5-HT2A antagonists, inverse agonists or partial agonists” (priority 2003, published 2005).
Read-outs that look alike come from different tables or passages of the source.

Assays:
Format in all cases: binding
D2 = D2 (Homo sapiens, UniProt P14416); assay: pKi of test compounds, D2 receptor
D3 = D3 (Homo sapiens, UniProt P35462); assay: pKi of test compounds, D3 receptor
5HT1A = target: T1, 5HT1A (Homo sapiens, UniProt P08908); assay: pKi of test compounds, 5HT1A receptor
T1 sequence (P08908 1-422): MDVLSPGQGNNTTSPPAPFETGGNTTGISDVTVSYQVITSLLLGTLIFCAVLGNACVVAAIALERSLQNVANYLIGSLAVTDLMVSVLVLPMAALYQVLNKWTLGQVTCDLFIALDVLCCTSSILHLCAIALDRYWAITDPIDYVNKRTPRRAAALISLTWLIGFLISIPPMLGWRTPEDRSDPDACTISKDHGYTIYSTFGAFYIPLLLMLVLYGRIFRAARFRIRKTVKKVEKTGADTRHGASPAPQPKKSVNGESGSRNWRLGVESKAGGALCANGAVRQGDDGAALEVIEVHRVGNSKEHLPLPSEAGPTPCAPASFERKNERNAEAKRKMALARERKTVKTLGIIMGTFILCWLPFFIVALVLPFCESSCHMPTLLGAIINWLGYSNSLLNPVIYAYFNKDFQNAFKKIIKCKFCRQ

5-HT2A receptor = 5-HT2A receptor (Homo sapiens, UniProt P28223); assay: pKi of test compounds, 5-HT2A receptor
5HT2B = 5HT2B (Homo sapiens, UniProt P41595); assay: pKi of test compounds, 5HT2B receptor
5HT2C = target: T2, 5HT2C (Homo sapiens, UniProt P28335); assay: pKi of test compounds, 5HT2C receptor
T2 sequence (P28335 33-458): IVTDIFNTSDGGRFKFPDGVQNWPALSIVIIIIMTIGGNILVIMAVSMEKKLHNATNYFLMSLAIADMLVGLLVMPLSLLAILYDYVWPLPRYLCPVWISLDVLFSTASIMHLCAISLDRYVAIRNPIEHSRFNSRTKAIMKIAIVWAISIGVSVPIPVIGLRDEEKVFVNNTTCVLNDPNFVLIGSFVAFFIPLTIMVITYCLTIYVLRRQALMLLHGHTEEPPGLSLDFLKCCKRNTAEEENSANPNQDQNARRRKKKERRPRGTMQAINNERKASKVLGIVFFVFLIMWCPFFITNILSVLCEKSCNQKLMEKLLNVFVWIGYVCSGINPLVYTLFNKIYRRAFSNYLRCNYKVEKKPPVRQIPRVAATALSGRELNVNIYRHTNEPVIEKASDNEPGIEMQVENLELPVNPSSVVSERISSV

5HT6rat = 5HT6rat (Rattus norvegicus, UniProt P31388); assay: pKi of test compounds, 5HT6 receptor
5HT7rat = 5HT7rat (Rattus norvegicus, UniProt P32305); assay: pKi of test compounds, 5HT7 receptor
Alpha1A = target: T3, Alpha1A (Homo sapiens, UniProt P35348); assay: pKi of test compounds, adrenergic receptor Alpha1A
T3 sequence (P35348 1-466): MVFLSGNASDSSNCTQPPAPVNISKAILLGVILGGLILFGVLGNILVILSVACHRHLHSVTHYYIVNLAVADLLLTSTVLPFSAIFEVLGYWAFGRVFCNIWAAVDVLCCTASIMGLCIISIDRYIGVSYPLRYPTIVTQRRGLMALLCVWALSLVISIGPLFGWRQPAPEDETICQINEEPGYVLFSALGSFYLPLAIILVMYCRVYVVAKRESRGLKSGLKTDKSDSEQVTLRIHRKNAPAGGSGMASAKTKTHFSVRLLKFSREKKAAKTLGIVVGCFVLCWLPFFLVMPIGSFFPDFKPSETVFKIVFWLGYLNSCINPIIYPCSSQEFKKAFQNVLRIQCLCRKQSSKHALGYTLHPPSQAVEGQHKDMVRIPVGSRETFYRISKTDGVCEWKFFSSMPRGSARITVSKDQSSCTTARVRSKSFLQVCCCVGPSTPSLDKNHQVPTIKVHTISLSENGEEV

Alpha2A = target: T4, Alpha2A (Homo sapiens, UniProt P08913); assay: pKi of test compounds, adrenergic receptor Alpha2A
T4 sequence (P08913 1-465): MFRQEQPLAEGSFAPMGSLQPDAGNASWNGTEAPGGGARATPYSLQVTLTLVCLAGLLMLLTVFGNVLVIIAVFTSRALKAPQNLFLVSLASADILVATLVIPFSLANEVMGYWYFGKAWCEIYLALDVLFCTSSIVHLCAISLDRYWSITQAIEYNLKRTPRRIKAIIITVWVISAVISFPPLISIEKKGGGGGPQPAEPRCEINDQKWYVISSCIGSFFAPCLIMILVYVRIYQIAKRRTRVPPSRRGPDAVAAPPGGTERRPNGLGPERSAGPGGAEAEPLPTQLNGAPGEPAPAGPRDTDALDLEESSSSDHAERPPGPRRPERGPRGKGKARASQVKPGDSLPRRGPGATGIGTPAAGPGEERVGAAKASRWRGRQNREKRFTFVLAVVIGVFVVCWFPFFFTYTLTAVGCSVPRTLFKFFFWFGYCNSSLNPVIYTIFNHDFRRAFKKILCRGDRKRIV

Alpha2B = Alpha2B (Homo sapiens, UniProt P18089); assay: pKi of test compounds, adrenergic receptor Alpha2B
Alpha2C = target: T5, Alpha2C (Homo sapiens, UniProt P18825); assay: pKi of test compounds, adrenergic receptor Alpha2C
T5 sequence (P18825 1-462): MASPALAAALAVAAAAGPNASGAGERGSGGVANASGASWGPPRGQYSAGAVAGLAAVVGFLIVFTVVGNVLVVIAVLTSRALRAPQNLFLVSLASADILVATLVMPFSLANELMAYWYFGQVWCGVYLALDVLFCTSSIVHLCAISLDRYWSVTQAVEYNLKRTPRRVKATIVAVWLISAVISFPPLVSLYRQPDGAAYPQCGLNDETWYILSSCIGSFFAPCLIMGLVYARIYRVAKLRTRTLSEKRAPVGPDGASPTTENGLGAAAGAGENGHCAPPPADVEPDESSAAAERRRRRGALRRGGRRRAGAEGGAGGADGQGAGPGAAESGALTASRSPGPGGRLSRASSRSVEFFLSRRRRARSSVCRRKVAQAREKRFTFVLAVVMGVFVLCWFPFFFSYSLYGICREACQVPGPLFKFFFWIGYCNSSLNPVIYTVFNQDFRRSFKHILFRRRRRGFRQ

Beta1 = Beta1 (Homo sapiens, UniProt P08588); assay: pKi of test compounds, adrenergic receptor Beta1
Beta2 = Beta2 (Homo sapiens, UniProt P07550); assay: pKi of test compounds, adrenergic receptor Beta2
D1 = D1 (Homo sapiens, UniProt P21728); assay: pKi of test compounds, D1 receptor
D4 receptor = target: T6, D4 receptor (Homo sapiens, UniProt P21917); assay: pKi of test compounds, D4 receptor
T6 sequence (P21917 1-419): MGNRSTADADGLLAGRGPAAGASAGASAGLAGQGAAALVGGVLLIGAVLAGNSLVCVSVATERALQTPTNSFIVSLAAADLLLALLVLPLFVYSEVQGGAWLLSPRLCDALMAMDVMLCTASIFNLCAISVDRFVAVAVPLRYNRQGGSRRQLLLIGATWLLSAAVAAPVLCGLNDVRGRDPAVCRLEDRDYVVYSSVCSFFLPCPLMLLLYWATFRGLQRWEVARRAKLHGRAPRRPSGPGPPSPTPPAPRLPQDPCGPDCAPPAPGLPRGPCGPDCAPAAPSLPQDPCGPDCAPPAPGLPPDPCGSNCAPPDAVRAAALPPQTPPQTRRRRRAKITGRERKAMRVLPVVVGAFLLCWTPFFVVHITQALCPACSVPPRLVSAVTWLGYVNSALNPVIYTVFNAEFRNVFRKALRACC

5HT1B = 5HT1B (Homo sapiens, UniProt P28222); assay: pKi of test compounds, 5HT1B receptor
5HT1D = 5HT1D (Homo sapiens, UniProt P28221); assay: pKi of test compounds, 5HT1D receptor
5HT1E = 5HT1E (Homo sapiens, UniProt P28566); assay: pKi of test compounds, 5HT1E receptor
[1] = read-out: pKi 5HT1D (converted)

Sequence of D1 (P21728 whole entry): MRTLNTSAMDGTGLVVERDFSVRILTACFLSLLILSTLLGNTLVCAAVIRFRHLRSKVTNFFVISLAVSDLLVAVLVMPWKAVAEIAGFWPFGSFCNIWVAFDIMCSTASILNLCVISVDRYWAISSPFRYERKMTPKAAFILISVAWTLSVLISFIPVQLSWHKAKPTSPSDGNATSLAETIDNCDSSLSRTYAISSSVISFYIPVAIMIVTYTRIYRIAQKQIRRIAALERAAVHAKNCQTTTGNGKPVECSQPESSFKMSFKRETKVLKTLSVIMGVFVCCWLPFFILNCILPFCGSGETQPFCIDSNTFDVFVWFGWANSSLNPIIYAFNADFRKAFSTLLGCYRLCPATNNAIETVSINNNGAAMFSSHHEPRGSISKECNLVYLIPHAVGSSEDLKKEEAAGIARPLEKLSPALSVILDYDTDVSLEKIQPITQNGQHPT
Sequence of 5HT2B (P41595 whole entry, species assumed): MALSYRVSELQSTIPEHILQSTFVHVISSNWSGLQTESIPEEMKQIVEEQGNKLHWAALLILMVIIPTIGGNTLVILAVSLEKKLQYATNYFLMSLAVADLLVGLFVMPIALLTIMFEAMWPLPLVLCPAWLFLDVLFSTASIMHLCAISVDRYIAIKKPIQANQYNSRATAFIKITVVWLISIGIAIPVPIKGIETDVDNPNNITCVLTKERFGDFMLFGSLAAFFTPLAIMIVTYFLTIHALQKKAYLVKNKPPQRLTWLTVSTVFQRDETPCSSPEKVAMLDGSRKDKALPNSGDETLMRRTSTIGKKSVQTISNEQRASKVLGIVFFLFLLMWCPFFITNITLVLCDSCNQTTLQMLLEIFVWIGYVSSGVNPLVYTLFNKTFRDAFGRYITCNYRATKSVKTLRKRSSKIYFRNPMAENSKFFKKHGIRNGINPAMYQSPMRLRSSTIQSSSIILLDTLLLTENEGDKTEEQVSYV
Sequence of 5HT1E (P28566 whole entry, species assumed): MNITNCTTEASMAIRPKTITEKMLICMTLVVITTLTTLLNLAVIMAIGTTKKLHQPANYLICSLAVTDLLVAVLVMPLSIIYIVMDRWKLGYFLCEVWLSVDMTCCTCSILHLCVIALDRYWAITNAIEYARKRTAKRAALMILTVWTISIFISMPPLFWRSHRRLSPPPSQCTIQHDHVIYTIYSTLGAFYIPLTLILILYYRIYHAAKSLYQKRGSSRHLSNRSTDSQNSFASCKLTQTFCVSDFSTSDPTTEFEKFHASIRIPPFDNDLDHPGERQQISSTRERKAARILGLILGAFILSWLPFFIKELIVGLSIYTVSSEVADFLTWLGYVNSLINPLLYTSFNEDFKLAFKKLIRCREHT
Sequence of 5HT1B (P28222 whole entry, species assumed): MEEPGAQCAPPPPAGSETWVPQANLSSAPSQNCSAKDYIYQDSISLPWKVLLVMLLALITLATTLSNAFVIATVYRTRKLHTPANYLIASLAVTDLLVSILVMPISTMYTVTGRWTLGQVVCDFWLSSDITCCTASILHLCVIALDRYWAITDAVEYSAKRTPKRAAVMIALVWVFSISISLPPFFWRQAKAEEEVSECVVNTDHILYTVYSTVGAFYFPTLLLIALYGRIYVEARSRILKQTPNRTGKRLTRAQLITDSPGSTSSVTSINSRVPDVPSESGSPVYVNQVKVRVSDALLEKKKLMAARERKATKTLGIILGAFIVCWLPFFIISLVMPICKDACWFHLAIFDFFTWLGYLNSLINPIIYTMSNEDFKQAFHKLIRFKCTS
Sequence of 5-HT2A receptor (P28223 whole entry): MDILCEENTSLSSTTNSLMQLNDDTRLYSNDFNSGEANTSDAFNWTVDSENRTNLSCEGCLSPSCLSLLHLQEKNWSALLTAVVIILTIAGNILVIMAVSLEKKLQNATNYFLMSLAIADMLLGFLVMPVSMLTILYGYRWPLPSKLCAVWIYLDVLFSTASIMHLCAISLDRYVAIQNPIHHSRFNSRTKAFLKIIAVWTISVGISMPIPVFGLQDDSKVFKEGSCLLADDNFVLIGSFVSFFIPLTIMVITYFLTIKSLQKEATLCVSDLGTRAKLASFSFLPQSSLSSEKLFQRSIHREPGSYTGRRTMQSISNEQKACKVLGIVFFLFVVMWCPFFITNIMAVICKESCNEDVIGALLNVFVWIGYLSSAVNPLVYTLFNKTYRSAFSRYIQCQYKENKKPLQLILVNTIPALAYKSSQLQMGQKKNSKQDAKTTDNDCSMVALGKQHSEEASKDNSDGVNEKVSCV
Sequence of 5HT1D (P28221 whole entry, species assumed): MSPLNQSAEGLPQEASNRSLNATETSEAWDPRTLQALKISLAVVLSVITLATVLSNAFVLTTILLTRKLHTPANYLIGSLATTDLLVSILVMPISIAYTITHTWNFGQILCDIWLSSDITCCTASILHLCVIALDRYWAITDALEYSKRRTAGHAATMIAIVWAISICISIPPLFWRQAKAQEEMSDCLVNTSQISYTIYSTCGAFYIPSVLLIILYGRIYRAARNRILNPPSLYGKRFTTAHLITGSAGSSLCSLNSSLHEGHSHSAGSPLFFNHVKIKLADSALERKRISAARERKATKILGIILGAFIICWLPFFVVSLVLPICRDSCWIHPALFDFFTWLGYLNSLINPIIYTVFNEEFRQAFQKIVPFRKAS
Sequence of D2 (P14416 whole entry): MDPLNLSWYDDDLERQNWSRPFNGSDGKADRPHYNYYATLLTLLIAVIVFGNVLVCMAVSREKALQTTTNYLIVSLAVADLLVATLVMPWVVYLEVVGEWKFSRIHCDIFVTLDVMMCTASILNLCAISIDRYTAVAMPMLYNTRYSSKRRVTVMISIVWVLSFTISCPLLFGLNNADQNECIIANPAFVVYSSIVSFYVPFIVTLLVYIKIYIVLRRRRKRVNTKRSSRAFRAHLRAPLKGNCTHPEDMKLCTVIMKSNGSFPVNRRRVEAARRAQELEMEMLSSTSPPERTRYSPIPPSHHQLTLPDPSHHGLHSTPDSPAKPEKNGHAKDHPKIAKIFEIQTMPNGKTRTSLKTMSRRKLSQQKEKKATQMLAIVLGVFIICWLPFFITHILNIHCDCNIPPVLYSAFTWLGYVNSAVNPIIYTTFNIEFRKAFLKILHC
Sequence of D3 (P35462 whole entry): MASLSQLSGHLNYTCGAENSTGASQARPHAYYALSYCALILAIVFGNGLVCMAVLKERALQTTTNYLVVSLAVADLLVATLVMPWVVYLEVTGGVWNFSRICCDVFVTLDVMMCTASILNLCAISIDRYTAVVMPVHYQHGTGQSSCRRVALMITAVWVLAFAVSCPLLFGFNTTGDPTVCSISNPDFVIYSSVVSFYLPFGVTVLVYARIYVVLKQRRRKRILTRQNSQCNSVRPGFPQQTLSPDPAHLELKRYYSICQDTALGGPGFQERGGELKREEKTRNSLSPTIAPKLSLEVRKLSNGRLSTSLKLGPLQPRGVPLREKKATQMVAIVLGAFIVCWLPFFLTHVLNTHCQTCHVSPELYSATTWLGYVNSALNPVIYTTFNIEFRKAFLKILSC
Sequence of 5HT7rat (P32305 whole entry): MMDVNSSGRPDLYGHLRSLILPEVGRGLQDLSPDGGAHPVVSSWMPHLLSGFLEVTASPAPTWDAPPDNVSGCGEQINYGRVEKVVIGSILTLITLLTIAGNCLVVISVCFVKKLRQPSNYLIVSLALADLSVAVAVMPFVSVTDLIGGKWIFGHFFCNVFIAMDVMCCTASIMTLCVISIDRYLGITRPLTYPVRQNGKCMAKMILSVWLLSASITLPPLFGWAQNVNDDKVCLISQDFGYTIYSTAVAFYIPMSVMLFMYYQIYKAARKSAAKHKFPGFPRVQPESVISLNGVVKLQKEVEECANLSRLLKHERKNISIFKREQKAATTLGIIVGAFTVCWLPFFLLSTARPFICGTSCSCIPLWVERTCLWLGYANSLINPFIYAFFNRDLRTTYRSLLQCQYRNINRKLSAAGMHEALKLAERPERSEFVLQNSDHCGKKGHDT
Sequence of Beta2 (P07550 whole entry): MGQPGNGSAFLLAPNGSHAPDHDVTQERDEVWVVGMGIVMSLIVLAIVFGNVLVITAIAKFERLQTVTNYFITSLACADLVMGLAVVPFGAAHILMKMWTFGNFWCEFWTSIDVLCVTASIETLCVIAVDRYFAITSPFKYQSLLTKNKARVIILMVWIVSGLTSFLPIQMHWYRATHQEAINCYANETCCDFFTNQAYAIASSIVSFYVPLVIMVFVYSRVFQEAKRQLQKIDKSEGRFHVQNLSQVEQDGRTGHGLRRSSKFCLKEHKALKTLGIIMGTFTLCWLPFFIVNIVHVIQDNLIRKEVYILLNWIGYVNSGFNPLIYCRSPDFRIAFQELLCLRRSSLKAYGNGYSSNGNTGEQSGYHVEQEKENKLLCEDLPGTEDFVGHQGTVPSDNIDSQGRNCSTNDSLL
Sequence of 5HT6rat (P31388 whole entry): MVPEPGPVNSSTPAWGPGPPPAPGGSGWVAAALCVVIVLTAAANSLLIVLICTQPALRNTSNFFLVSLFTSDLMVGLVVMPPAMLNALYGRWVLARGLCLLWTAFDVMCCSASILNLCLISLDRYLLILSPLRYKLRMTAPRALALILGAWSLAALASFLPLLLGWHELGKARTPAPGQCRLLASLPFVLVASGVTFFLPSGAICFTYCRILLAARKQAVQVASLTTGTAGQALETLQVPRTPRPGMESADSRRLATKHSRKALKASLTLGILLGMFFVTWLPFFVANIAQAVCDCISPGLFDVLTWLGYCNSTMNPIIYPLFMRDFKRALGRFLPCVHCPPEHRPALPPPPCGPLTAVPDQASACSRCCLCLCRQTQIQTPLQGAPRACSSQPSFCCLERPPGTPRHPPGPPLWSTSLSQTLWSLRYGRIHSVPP

O=C(CC1CCN(CCOc2cccc3c2OCCO3)C1)c1ccc(F)cc1 (stereo not shown) [S16924]
pKi D2 (D2): 7-8
pKi D3 (D3): 7-8
pKi 5HT1A (5HT1A): 8-9
pKi 5-HT2A (5-HT2A receptor): >9
pKi 5HT2B (5HT2B): 8-9
pKi 5HT2C (5HT2C): 7-8
pKi 5HT6rat (5HT6rat; rat): 7-8
pKi 5HT7rat (5HT7rat): 7-8
pKi Alpha1A (Alpha1A): 8-9
pKi Alpha2A (Alpha2A): 6-7
pKi Alpha2B (Alpha2B): 7-8
pKi Alpha2C (Alpha2C): 6-7
pKi Beta1 (Beta1): <6
pKi Beta2 (Beta2): <6

O=C1N(CCN2CCC(c3noc4cc(F)ccc34)CC2)CCN1c1ccccc1 [S18327]
pKi D1 (D1): 7-8
pKi D2 (D2): 7-8
pKi D3 (D3): 6-7
pKi D4 (D4 receptor; D4): 8-9
pKi 5HT1A (5HT1A): 7-8
pKi 5-HT2A (5-HT2A receptor): 8-9
pKi 5HT2C (5HT2C): 6-7
pKi Alpha1A (Alpha1A): >9
pKi Alpha2A (Alpha2A): 6-7

N#Cc1ccc2c(c1)[C@H]1CN(CCCCNC(=O)c3ccc(-c4ccccc4)cc3)C[C@@H]1CO2 [S33084]
pKi D1 (D1): 6-7
pKi D2 (D2): 7-8
pKi D3 (D3): >9
pKi 5HT1A (5HT1A): <6
pKi 5HT1B (5HT1B): 6-7
pKi 5HT1D (5HT1D): 6-7
pKi 5HT2B (5HT2B): 6-7
pKi 5HT2C (5HT2C): 7-8
pKi Alpha1A (Alpha1A): 6-7
pKi Alpha2A (Alpha2A): <6

OCCOCCN1CCN(C2=Nc3ccccc3Sc3ccccc32)CC1 [Seroquel]
Ki (5HT1E): > 1000 nM

O=C1NCCN1CCN1CCC(c2cn(-c3ccc(F)cc3)c3ccc(Cl)cc23)CC1 [Sertindole]
Ki (D1): 10 to 100 nM
Ki (5HT1B): 10 to 100 nM
Ki (5HT1D; [1]): 10 to 100 nM
Ki (Alpha1A): < 1 nM

O=C1CC2(CCCC2)CC(=O)N1CCCCN1CCN(c2nsc3ccccc23)CC1 [Tiospirone]
Ki (D2): 1 to 10 nM
Ki (D3): 1 to 10 nM
Ki (D4 receptor): 1 to 10 nM
Ki (5-HT2A receptor): < 1 nM
Ki (Alpha1A): < 1 nM
Ki (Alpha2A): 100 to 1000 nM

COC(=O)[C@@H]1[C@H]2C[C@H]3c4[nH]c5ccccc5c4CCN3C[C@@H]2CC[C@@H]1O [Yohimbine]
Ki (D2; read-out: pKi D2 (converted)): 100 to 1000 nM
Ki (5HT1D): 10 to 100 nM

O=C1Cc2cc(CCN3CCN(c4nsc5ccccc45)CC3)c(Cl)cc2N1 [Ziprasidone]
Ki (5HT1A): 1 to 10 nM
Ki (5HT1B): < 1 nM
Ki (5HT1D; [1]): 1 to 10 nM
Ki (5HT1E): 100 to 1000 nM
Ki (5HT2B): 1 to 10 nM
Ki (5HT6rat): 10 to 100 nM
Ki (5HT7rat): 1 to 10 nM
Ki (Beta1): > 1000 nM
Ki (Beta2): > 1000 nM

CN(C)CCOC1=Cc2ccccc2Sc2ccc(Cl)cc21 [Zotepine]
Ki (5HT1B): 10 to 100 nM
Ki (5HT1D; [1]): 10 to 100 nM
Ki (5HT1E): 100 to 1000 nM
